From patent US6357163B1, “Use of nucleic acid analogues in diagnostics and analytical procedures” (priority 1991, dated 2002)
Values joined by “and” are separate entries in the source; they are usually repeats but may differ in a detail not shown here. Identical values can stand only once.

How the values were obtained:
5′-AAA-AAA-AAA-AAA-AAA = experiment: Melting temperature (Tm) of hybrid with oligodeoxyribonucleotide; assay type: binding; conditions: oligo 14 (5′-AAA-AAA-AAA-AAA-AAA); 10 mM phosphate, 1 mM EDTA, 140 mM NaCl, pH 7.2
From the text: (§1) 2. Upon formation of DNA duplexes (dsDNA) from single strand DNA, the extinction coefficient decreases (hypochromicity). Thus, the denaturing of DNA can be followed by measuring changes in the absorbance, for example, as a function of […], the temperature where 50% of a duplex has disappeared to give single strands.
(§2) Duplexes were formed from the single-stranded oligodeoxyribonucleotides and the PNAs listed below. Typically 0.3 OD260 of the T-rich strand was hybridized with 1 equivalent of the other strand by heating to 90° C. for 5 min, cooling to room temperature and kept for 30 min and finally stored in a refrigerator at 5° C. for at least 30 min. The buffers used were all 10 mM in phosphate and 1 mM in EDTA. The low salt buffer contained no sodium chloride, whereas the medium salt buffer contained 140 mM NaCl and the high salt buffer 500 mM NaCl. The pH of all the buffers was 7.2. The melting temperature of the hybrids were determined on a Gilford Response apparatus. The following extinction coefficients were used A: 15.4 ml/μmol.cm; T: 8.8; G: 11.7 and C: 7.3 for both normal oligonucleotides and PNA. The melting curves were recorded in steps of 0.5 C/min. The Tm were determined from the maximum of the 1st derivative of the plot of A260 vs temperature.
14. 5′-AAA-AAA-AAA-AAA-AAA (See SEQ ID NO:20)

5′-AAG-AAG-AAA-A = experiment: as above; assay type: binding; conditions: oligo 5 (5′-AAG-AAG-AAA-A); 10 mM phosphate, 1 mM EDTA, 140 mM NaCl, pH 7.2
From the text: as §1, §2
5. 5′-AAG-AAG-AAA-A (See SEQ ID NO:9)

5′-AAA-AGA-AGA-A = experiment: as above; assay type: binding; conditions: oligo 7 (5′-AAA-AGA-AGA-A); 10 mM phosphate, 1 mM EDTA, 140 mM NaCl, pH 7.2
From the text: as §1, §2
7. 5′-AAA-AGA-AGA-A (See SEQ ID NO:13)

(dA)5(dG)(dA)4 = experiment: as above; assay type: binding; conditions: oligo 4 (5′-AAA-AAG-AAA-A), 10 mM phosphate, 1 mM EDTA, pH 7.2; for Tm, Medium Salt: 140 mM NaCl; for Tm, High Salt: 500 mM NaCl; for Tm, Low Salt: no sodium chloride
From the text: as §1, §2

(dA)10 = experiment: as above; assay type: binding; conditions: for Tm, Medium Salt / Tm, High Salt / Tm, Low Salt: oligo 2 (5′-AAA-AAA-AAA-A), 10 mM phosphate, 1 mM EDTA, pH 7.2; for Tm, Medium Salt: 140 mM NaCl; for Tm, High Salt: 500 mM NaCl; for Tm, Low Salt: no sodium chloride; for Tm: DNA (dA)10
From the text: as §1, §2

32P-end-labelled dA10 = experiment: Binding to dA10, gel retardation (PAGE); conditions: for binding to the corresponding dA10: summary statement, illustrated by gel retardation and Tm
Protocol: (§3) 1. As shown in Example 56 below PNA-oligonucleotide complexes will migrate slower than the single stranded oligonucleotide upon electrophoresis in polyacrylamide gels. Consequently, such experiments were performed with Acr^1-(Taeg)10-Lys-NH2 and ^32P-end-labelled dA10.
The sample was cooled in ice (15 min) and analyzed by gel electrophoresis in polyacrylamide (PAGE). To 10 μl of the sample was added 2 μl 50% glycerol, 5μl TBE (TBE=90 mM Tris-borate, 1 mM EDTA, pH 8.3), and the sample was analysed by PAGE (15% acrylamide, 0.5% bisacrylamide) in TBE buffer at 4° C. A 10 μl portion of the sample was lyophilized and redissolved in 10 μl 80% formamide, 1 TBE, heated to 90° C. (5 min), and analyzed by urea/PAGE (15% acrylamide, 0.5% bisacrylamide, 7 M urea) in TBE. [^32P]-containing DNA bands were visualized by autoradiography using intensifying screens and Agfa Curix RPI X-ray films exposed at −80° C. for 2 h.
Oligonucleotides were synthesized on a Biosearch 7500 DNA synthesizer, labelled with γ[^32P]-ATP (Amersham, 5000 Ci/mmol) and polynucleotide kinase, and purified by PAGE using standard techniques (Maniatis et al. (1986): A laboratory manual, Cold Spring Harbor Laboratories).
(§4) In FIG. 11a and in FIG. 11b, the 5′-^32P-labelled oligonucleotide 1 is 5′-GATCCA10G. This was incubated in the absence (lanes 1 and 4) or presence of Acr-T10-Lys-NH2 (in lanes 2 and 5, 25 pmol; lanes 3 and 6, 75 pmol) and also in the absence (lanes 1 to 3) or presence (lanes 4 to 6) of “oligo-2” which was 5′-GATCCT10G. 5′-^32P-labelled oligo 2 was incubated in the absence (lane 7) or presence of the same PNA (lane 8, 25 pmol; lane 9, 75 pmol) and analysed by PAGE as described above in detail.
The results in FIG. 11a show retardation of the ssDNA as it is hybridised by PNA (lanes 1 to 3) and the ability of PNA to compete with a DNA oligonucleotide, for labelled complementary oligonucleotide (lanes 4 to 6). The intensity of the band attributable to dsDNA grows faster as the PNA concentration is raised and is replaced by a band representing the slower moving PNA-DNA hybride. […]

32P-end-labelled dT10 = experiment: Gel retardation (PAGE), control experiment; assay type: binding; conditions: same conditions
Protocol: as §3, §4
The results in FIG. 11a show retardation of the ssDNA as it is hybridised by PNA (lanes 1 to 3) and the ability of PNA to compete with a DNA oligonucleotide, for labelled complementary oligonucleotide (lanes 4 to 6). The intensity of the band attributable to dsDNA grows faster as the PNA concentration is raised and is replaced by a band representing the slower moving PNA-DNA hybride.

[1] = test system: A10 (5′-GATCCAAAAAAAAAAG); assay type: binding
[2] = test system: A9G (5′-TCGACAAAAAGAAAAG); experiment: Binding of 5′-32P-endlabeled oligonucleotide to PNA-Sepharose; conditions: DNA A9G; PNA on solid support (CNBr-Sepharose); 16 hr at 20° C. in TE
[3] = test system: A8G2 (5′-GAAGAAGAAACTGAC); experiment: as above; conditions: DNA A8G2; PNA on solid support (CNBr-Sepharose); 16 hr at 20° C. in TE
[4] = test system: mix (5′-GATCACGCGTATACGCGT); experiment: as above; conditions: DNA mix; PNA on solid support (CNBr-Sepharose); 16 hr at 20° C. in TE
[5] = test system: 32P-dsDNA (A10/T10) target, pT10 fragment; experiment: Stability of PNA-dsDNA complexes; assay type: binding; conditions: PNA bound to A10/T10 dsDNA target; heated 10 min with competing GATCCA10G, S1 nuclease
Protocol: Complexes between PNA-Tn and ^32P-dsDNA (A10/T10) target were formed (60 min, 37° C.). The complexes were then incubated at the desired temperature in the presence of excess oligo-dA10 for 10 min, cooled to RT and probed with KMnO4.
A mixture of 200 cps ^32P-pT10 fragment (as in Example 65), 0.5 μg calf thymus DNA and 300 ng of the desired PNA (either T10-LysNH2, T8-LysNH2 or T6-LysNH2) was incubated in 100 μl 200 mM NaCl, 50 mM Na-acetate, pH 4.5, 1 mM ZnSO4 for 60 min at 37° C. A 2 μg portion of oligonucleotide GATCCA10G was added to compete with the PNA for the labelled oligonucleotide and each sample was heated for 10 min at the temperature indicated, cooled in ice for 10 min and warmed to 20° C. 50 U of S1 nuclease was added and the quantity of radio-activity liberated as single nucleotides was measured.

5′-AAA-AAA-AA = experiment: Melting temperature (Tm) of hybrid with oligodeoxyribonucleotide; assay type: binding; conditions: oligo 1 (5′-AAA-AAA-AA), 10 mM phosphate, 1 mM EDTA, pH 7.2
From the text: as §1, §2
1. 5′-AAA-AAA-AA (See SEQ ID NO:12)

RNA-G = experiment: Drop in A260 on mixing PNA with RNA; assay type: binding
Protocol: (§5) The hybrid formed between RNA-A (poly rA) and PNA-T10-Lys-NH2 melts at such high temperature that it cannot be measured (>90 C). […] Thereafter the sample is heated to 90° C. for 5 min, cooled to room temperature and kept at this temperature for 30 minutes and finally stored at 5° C. for 30 min.

RNA-U = experiment: Drop in A260 on mixing PNA with RNA; assay type: binding
Protocol: as §5

RNA-C = experiment: Drop in A260 on mixing PNA with RNA; assay type: binding
Protocol: as §5

RNA-A = experiment: Drop in A260 on mixing PNA with RNA; assay type: binding
Protocol: as §5

[6] = test system: A10 target in plasmid pA10KS / pT10KS, transcription by RNA polymerase; experiment: Inhibition of transcription by PNA; assay type: biochemical
Protocol: RNA transcripts were visualized by autoradiography. The plasmid used was: Lane 1 to 5; pA10KS (the A10 target is positioned on the transcribed strand). Lane 6 to 10: pT10KS (the A10 target is positioned on the non-transcribed strand). The plasmid was treated with the following restriction enzymes prior to the experiment: Lanes 1, 4, 6 and 9: PyuII; lanes 2, 5, 7 and 10: Xha I; lanes 3 and 8: BamHI. […] If the PNA is bound to the non-transcribed strand of the plasmid, transcription is not arrested.

RNA-A (poly rA) = experiment: Melting of PNA-RNA hybrid; assay type: binding; conditions: hybrid with RNA-A (poly rA); cannot be measured
Protocol: as §5

[7] = A260 before mixing 0.600, heated to 90° C. for 5 min, cooled

## 5′-TTT-TTT-TTT-TTT-TTT [Oligo 13]
5′-AAA-AAA-AAA-AAA-AAA
  Tm, Medium Salt: 39.0 °C

## Ac-TTT-TTT-TTT-T-Lys-NH2 [f]
5′-AAG-AAG-AAA-A
  Tm, Medium Salt: 46.5 °C
5′-AAA-AGA-AGA-A
  Tm, Medium Salt: 43.5 °C
(dA)5(dG)(dA)4
  Tm, Medium Salt: 62.0 °C
(dA)10
  Tm, Medium Salt: 74 °C

## Acr-TTT-TTT-TTT-T-Lys-NH2 [e]
32P-end-labelled dA10; native and denaturing gel conditions
  migration of 32P-end-labelled dA10 in polyacrylamide gel: retarded migration
32P-end-labelled dA10
  binding to the corresponding dA10: very efficient binding
(dA)10
  Tm, Medium Salt: 86.0 °C
  Tm, High Salt: ˜90 °C
  Tm, Low Salt: 84.5 °C
32P-end-labelled dT10
  migration of 32P-end-labelled dT10 in polyacrylamide gel: no retardation

## TTC-TTC-TTT-T-Lys-NH2 [T8C2]
[1]
  % Binding of 32P-oligo to PNA-Sepharose: 15%
[2]
  % Binding of 32P-oligo to PNA-Sepharose: 52%
[3]
  % Binding of 32P-oligo to PNA-Sepharose: 42%
[4]
  % Binding of 32P-oligo to PNA-Sepharose: 14%

## TTT-TTC-TTT-T-Lys-NH2
5′-AAG-AAG-AAA-A
  Tm, Medium Salt: 57.5 °C
5′-AAA-AGA-AGA-A
  Tm, Medium Salt: 58.0 °C
(dA)5(dG)(dA)4
  Tm, Medium Salt: 72.0 °C
  Tm, High Salt: 72.5 °C
  Tm, Low Salt: 74.5 °C
[2]
  % Binding of 32P-oligo to PNA-Sepharose: 50%
[3]
  % Binding of 32P-oligo to PNA-Sepharose: 45%
[4]
  % Binding of 32P-oligo to PNA-Sepharose: 13%

## TTT-TTT-TT-Lys-NH2 [b]
[5]
  Tm of PNA/DNA complex: 60 °C
5′-AAA-AAA-AA; 140 mM NaCl
  Tm, Medium Salt: 51.5 °C
5′-AAA-AAA-AA; 500 mM NaCl
  Tm, High Salt: 50.0 °C
5′-AAA-AAA-AA; no sodium chloride
  Tm, Low Salt: 56.0 °C

## TTT-TTT-TTT-T-Lys-NH2 [H-T10-LysNH2]
[1]
  % Binding of 32P-oligo to PNA-Sepharose: 51%
RNA-G; A260 before mixing 0.600
  A260 After Mixing: 0.514
RNA-G; [7]
  A260 After Mixing and Heating: 0.517
RNA-U; A260 before mixing 0.600
  A260 After Mixing: 0.538
RNA-U; [7]
  A260 After Mixing and Heating: 0.528
RNA-C; A260 before mixing 0.600
  A260 After Mixing: 0.540
RNA-C; [7]
  A260 After Mixing and Heating: 0.532
RNA-A; A260 before mixing 0.600
  A260 After Mixing: 0.389
RNA-A; [7]
  A260 After Mixing and Heating: 0.360
5′-AAG-AAG-AAA-A
  Tm, Medium Salt: 47.0 °C
[5]
  Tm of PNA/DNA complex: > 70 °C
5′-AAA-AGA-AGA-A
  Tm, Medium Salt: 46.0 °C
32P-end-labelled dA10
  binding to the corresponding dA10: very efficient binding
(dA)5(dG)(dA)4
  Tm, Medium Salt: 59.0 °C
  Tm, High Salt: 61.5 °C
  Tm, Low Salt: 60.0 °C
(dA)10; Example 55
  Tm: 73 °C and 73 °C °C
(dA)10; Example 61
  Tm: 73 °C °C
(dA)10
  Tm, Medium Salt: 72.5 °C
  Tm, High Salt: 73.0 °C
  Tm, Low Salt: 73.0 °C
[6]; PNA bound to the non-transcribed strand (pT10KS)
  transcription of RNA: not arrested
[6]; PNA bound to the transcribed strand (pA10KS)
  transcription of RNA: arrested at the PNA binding site
[2]
  % Binding of 32P-oligo to PNA-Sepharose: 11%
[3]
  % Binding of 32P-oligo to PNA-Sepharose: 11%
[4]
  % Binding of 32P-oligo to PNA-Sepharose: 11%
RNA-A (poly rA)
  melting temperature of hybrid: > 90 C
